This note sets out measurements from the supplement of paper PMC5412046.

The structures appear in SMILES notation. Where a name gives a salt, the structure may show the parent alone.

Assay [1] has as its system SB.mhdgc-1. Briefly: viability at highest tested concentration (MAXR) relative to DMSO; higher = less cytotoxic. To be noted: SB.mhdgc-1 (hereditary c.1380delA CDH1 gastric cancer). The procedure, abridged:
(§1)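 Hereditary or sporadic patient-derived gastric cancer cells (500 cells in 5 μL medium per 1536 well) received 23 nL compound in DMSO by pintool at 11 threefold-diluted concentrations, with the top concentration recorded per compound. After 48 h, CellTiter-Glo was added for 30 min at room temperature and luminescence read on a ViewLux. Values are DMSO-normalised viability, either at the highest concentration or as trapezoidal area under the curve.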

The subject of assay [2] is SB.msgc-1. The assay is described as above. To be noted: SB.msgc-1 (sporadic gastric cancer). The procedure, abridged:
as §1

Assay [3] concerns SB.mhdgc-1. Kind of assay: area under the dose-response curve of % viability (trapezoidal, 11 doses) (% viability x log10 concentration); higher = less cytotoxic. To be noted: SB.mhdgc-1 (hereditary c.1380delA CDH1 gastric cancer). In a few lines: as §1
Assay [4] deals with SB.msgc-1. The description is as above. To be noted: SB.msgc-1 (sporadic gastric cancer). The procedure, abridged:
as §1

Regarding `Clc1ccc2ncc(-c3cccc(NC4CNC4)n3)n2c1` (top concentration 46.0829 µM), the viability with SB.mhdgc-1 [1] worked out at 40.8%; in the assay on SB.msgc-1 [2] it was 21.2%. The “area under the dose-response curve” value in the assay with SB.mhdgc-1 [3] was 450; in the assay on SB.msgc-1 [4] it was 529.

Regarding `O=C1c2c(O)cc(O)cc2O[C@H](c2cc(O)c(O)c(O)c2)[C@H]1O` [Dihydromyricetin] (top concentration 46.0829 µM), the viability is 19.1% in the assay on SB.mhdgc-1 [1] and 62.8% in the assay with SB.msgc-1 [2]. For the same compound, the “area under the dose-response curve” value in the assay with SB.mhdgc-1 [3] is 460; in the assay with SB.msgc-1 [4], 512.

As to `C/C=C1\C2C=C(C)CC1(N)c1ccc(=O)[nH]c1C2` (stereo not given) [Huperizine A] (top concentration 46.0829 µM), the viability came to 120% with SB.mhdgc-1 [1] and 117% with SB.msgc-1 [2]. Besides, the “area under the dose-response curve” value with SB.mhdgc-1 [3] is 584; with SB.msgc-1 [4], 571.

As for `C[C@@H]1CCO[C@H]2CN\3/C=C(/C(=O)NCC4=C(F)C=C(F)C=C4)C(=O)\C(=C3C(=O)N12)O` [Dolutegravir] (top concentration 46.0829 µM), the viability with SB.mhdgc-1 [1] is 102%; with SB.msgc-1 [2], 61.3%. Moreover, the “area under the dose-response curve” value with SB.mhdgc-1 [3] is 527; with SB.msgc-1 [4] it was 505.

For `COC(=O)Nc1ccc(-c2nc(N3CCOCC3)c3cnn(C4CCN(C(=O)OC)CC4)c3n2)cc1` [WYE-354] (top concentration 46.0829 µM), the viability with SB.mhdgc-1 [1] turned out to be 34.2%; in the assay with SB.msgc-1 [2], 57.3%. Further, the entries for the “area under the dose-response curve” value in the assay on SB.mhdgc-1 [3] and in the assay on SB.msgc-1 [4] were 191 and 339, respectively.

On to `Cc1nc(Nc2ncc(C(=O)Nc3c(C)cccc3Cl)s2)cc(N2CCN(CCO)CC2)n1` [Dasatinib] (top concentration 46.0829 µM), for which the viability in the assay with SB.mhdgc-1 [1] is 53.2%; in the assay on SB.msgc-1 [2] it was 37.8%. Further, the “area under the dose-response curve” value stood at 416 in the assay on SB.mhdgc-1 [3] and 398 with SB.msgc-1 [4].

For the compound `CC(=O)NC(C)c1ccc(Oc2ccc(OC(C)C)cc2)cc1` (stereo not given) [ACC1 BMS] (top concentration 46.0829 µM), the viability in the assay on SB.mhdgc-1 [1] stood at 45.2%; in the assay with SB.msgc-1 [2] it was 62.3%. In addition, the “area under the dose-response curve” value in the assay on SB.mhdgc-1 [3] came to 532; with SB.msgc-1 [4], 539.

`COc1cc(F)c(C(C)C)cc1-c1ccc(C(F)(F)F)cc1CN1C(=O)O[C@H](c2cc(C(F)(F)F)cc(C(F)(F)F)c2)[C@@H]1C` [Anacetrapib] (top concentration 46.0829 µM): the viability in the assay with SB.mhdgc-1 [1] was found to be 54.6%; with SB.msgc-1 [2], 77.9%. In addition, the “area under the dose-response curve” value in the assay on SB.mhdgc-1 [3] was determined as 470; in the assay on SB.msgc-1 [4], 478.

Turning to `COc1cccc2c1CCCC2CCCN1CCN(C2CCCCC2)CC1` (stereo not given) [PB-28] (top concentration 46.0829 µM), the figures for the viability in the assay with SB.mhdgc-1 [1] and with SB.msgc-1 [2] were 9.75% and 60.2%, respectively. Moreover, the results for the “area under the dose-response curve” value with SB.mhdgc-1 [3] and in the assay with SB.msgc-1 [4] were 482 and 529, respectively.

As for `CC(C)OC(=O)/C1=C/N(CC(C)(C)C2=C1[NH]C3=CC=CC=C23)C(=O)C4=CC=C(F)C(=C4)F` [Turofexorate isopropyl] (top concentration 46.0829 µM), the figures for the viability with SB.mhdgc-1 [1] and in the assay on SB.msgc-1 [2] were 95.8% and 62.3%, respectively. The “area under the dose-response curve” value was found to be 430 in the assay on SB.mhdgc-1 [3] and 351 in the assay with SB.msgc-1 [4].

`O=C1c2cccc(O)c2C(=O)c2c(O)cc(CO)cc21` [Aloe-emodin] (top concentration 46.0829 µM): the viability came out at 87.4% in the assay with SB.mhdgc-1 [1] and 60.1% with SB.msgc-1 [2]. In addition, the results for the “area under the dose-response curve” value in the assay on SB.mhdgc-1 [3] and in the assay with SB.msgc-1 [4] were 479 and 402, respectively.

As to `COC\1=C(/OC)C(=O)\C(=C(C)/C1=O)CCCCCCCCCCO` [Idebenone] (top concentration 46.0829 µM), the viability was found to be 103% in the assay on SB.mhdgc-1 [1] and 101% in the assay with SB.msgc-1 [2]. The “area under the dose-response curve” value stood at 566 in the assay with SB.mhdgc-1 [3] and 532 with SB.msgc-1 [4].

On to `CC(=O)NCCC(=O)N[C@@H](CCC(N)=O)C(=O)N[C@@H](CO)C(=O)N[C@@H](CCC(N)=O)C(=O)N[C@@H](CCC(N)=O)C(=O)N[C@H](C(=O)N[C@@H](Cc1ccccc1)C(=O)N[C@]1(C)CCCCCC/C=C\CCC[C@@](C)(C(=O)N[C@@H](CCC(N)=O)C(=O)N[C@@H](CC(N)=O)C(N)=O)NC(=O)[C@H](CC(C)C)NC(=O)[C@H](CC(C)C)NC(=O)[C@@H](CCCNC(=N)N)NC(=O)[C@H](Cc2c[nH]c3ccccc23)NC(=O)[C@H](CC(C)C)NC(=O)[C@H](CC(N)=O)NC1=O)[C@H](C)O` [Ac-SAH-p53-8] (top concentration 46.0829 µM), for which the viability came out at 52.2% with SB.mhdgc-1 [1] and 25.8% in the assay with SB.msgc-1 [2]. The “area under the dose-response curve” value in the assay with SB.mhdgc-1 [3] was found to be 499; with SB.msgc-1 [4] it was 518.

In the case of `COc1ncnc(N[S+](=O)([O-])c2ccc(N)cc2)c1OC` [Sulfadoxine] (top concentration 46.0829 µM), the viability in the assay on SB.mhdgc-1 [1] is 115%; in the assay with SB.msgc-1 [2], 130%. The “area under the dose-response curve” value in the assay on SB.mhdgc-1 [3] came to 561; with SB.msgc-1 [4], 609.

Turning to `CN(C)[C@@H](CCOc1cccc2ccccc12)c1ccccc1` [Dapoxetine hydrochloride] (top concentration 46.0829 µM), the results for the viability with SB.mhdgc-1 [1] and with SB.msgc-1 [2] were 15.4% and 47%, respectively. The “area under the dose-response curve” value came to 463 in the assay with SB.mhdgc-1 [3] and 516 in the assay on SB.msgc-1 [4].
